Laboratory results taken from ChEMBL document CHEMBL5131559, “Discovery and Preclinical Profiling of GSK3839919, a Potent HIV-1 Allosteric Integrase Inhibitor” (ACS Med Chem Lett, 2022).

Columns and labels:
[1] = tested on: Human immunodeficiency virus 1; assay: Antiviral activity against recombinant HIV1 NLRep-Rluc harbouring polymorphic T124/T125 integrase infected in human MT-2 cells assessed as inhibition of virus growth in presence of fetal bovine serum by measuring luciferase activity after 4 days; type: functional, organism-based; settings: Human immunodeficiency virus 1, NLRep, MT2, 96 h
[2] = tested on: Human immunodeficiency virus 1; assay: Antiviral activity against recombinant HIV1 NLRep-Rluc harbouring polymorphic N124/A125 integrase infected in human MT-2 cells assessed as inhibition of virus growth in presence of fetal bovine serum by measuring luciferase activity after 4 days; type: functional, organism-based; settings: Human immunodeficiency virus 1, NLRep, MT2, 96 h
[3] = Cytotoxicity against human MT2 cells; type: toxicity, cell-based
[4] = Clearance in Sprague-Dawley rat at 1 mg/kg, iv by LC-MS/MS analysis; type: ADME, organism-based; settings: in vivo
[5] = AUC (0 to infinity) in Sprague-Dawley rat at 5 mg/kg, po by LC-MS/MS analysis; type: ADME, organism-based; parameters: time infinity, dose 5 mg/kg, route po; settings: in vivo
[6] = Oral bioavailability in Sprague-Dawley rat at 5 mg/kg by LC-MS/MS analysis; type: ADME, organism-based; settings: in vivo
[7] = tested on: Human immunodeficiency virus 1; assay: Antiviral activity against recombinant HIV1 NLRep-Rluc harbouring polymorphic T124/T125 integrase infected in human MT-2 cells assessed as fold change in inhibition of virus growth in presence of fetal bovine serum by measuring luciferase activity after 4 days; type: functional; parameters: reference not given here; settings: time 4 day
[8] = Metabolic stability in human liver microsomes assessed as parent compound disappearance by measuring half life at 0.5 uM in presence of NADPH by LC-MS/MS analysis; type: ADME, Microsome
[9] = Clearance in CD-1 mouse at 1 mg/kg, iv by LC-MS/MS analysis; type: ADME, organism-based; settings: in vivo
[10] = Clearance in cynomolgus monkey at 1 mg/kg, iv by LC-MS/MS analysis; type: ADME, organism-based, Macaca fascicularis; settings: in vivo
[11] = tested on: Human immunodeficiency virus 1; assay: Antiviral activity against recombinant HIV1 NLRep-Rluc harbouring polymorphic A124/T125 integrase infected in human MT-2 cells assessed as inhibition of virus growth in presence of fetal bovine serum by measuring luciferase activity after 4 days; type: functional, organism-based; settings: Human immunodeficiency virus 1, NLRep, MT2, 96 h
[12] = tested on: Human immunodeficiency virus 1; assay: Antiviral activity against recombinant HIV1 NLRep-Rluc harbouring polymorphic T124/A125 integrase infected in human MT-2 cells assessed as inhibition of virus growth in presence of fetal bovine serum by measuring luciferase activity after 4 days; type: functional, organism-based; settings: Human immunodeficiency virus 1, NLRep, MT2, 96 h
[13] = tested on: Human immunodeficiency virus 1; assay: Antiviral activity against recombinant HIV1 NLRep-Rluc harbouring polymorphic N124/T125 integrase infected in human MT-2 cells assessed as inhibition of virus growth in presence of fetal bovine serum by measuring luciferase activity after 4 days; type: functional, organism-based; settings: Human immunodeficiency virus 1, NLRep, MT2, 96 h
[14] = tested on: Human immunodeficiency virus 1; assay: Antiviral activity against recombinant HIV1 NLRep-Rluc harbouring polymorphic A124/A125 integrase infected in human MT-2 cells assessed as inhibition of virus growth in presence of fetal bovine serum by measuring luciferase activity after 4 days; type: functional, organism-based; settings: Human immunodeficiency virus 1, NLRep, MT2, 96 h
[15] = tested on: Human immunodeficiency virus 1; assay: Antiviral activity against recombinant HIV1 NLRep-Rluc harbouring polymorphic T124/V125 integrase infected in human MT-2 cells assessed as inhibition of virus growth in presence of fetal bovine serum by measuring luciferase activity after 4 days; type: functional, organism-based; settings: Human immunodeficiency virus 1, NLRep, MT2, 96 h
[16] = AUC (0 to infinity) in CD-1 mouse at 5 mg/kg, po by LC-MS/MS analysis; type: ADME, organism-based; parameters: time infinity, dose 5 mg/kg, route po; settings: in vivo
[17] = Oral bioavailability in CD-1 mouse at 5 mg/kg by LC-MS/MS analysis; type: ADME, organism-based; settings: in vivo
[18] = Clearance in Beagle dog at 1 mg/kg, iv by LC-MS/MS analysis; type: ADME, organism-based, Canis lupus familiaris; settings: in vivo
[19] = AUC (0 to infinity) in Beagle dog at 2 mg/kg, po by LC-MS/MS analysis; type: ADME, organism-based, Canis lupus familiaris; parameters: time infinity, dose 2 mg/kg, route po; settings: in vivo
[20] = Oral bioavailability in Beagle dog at 2 mg/kg by LC-MS/MS analysis; type: ADME, organism-based, Canis lupus familiaris; settings: in vivo
[21] = AUC (0 to infinity) in cynomolgus monkey at 2 mg/kg, po by LC-MS/MS analysis; type: ADME, organism-based, Macaca fascicularis; parameters: time infinity, dose 2 mg/kg, route po; settings: in vivo
[22] = Oral bioavailability in cynomolgus monkey at 2 mg/kg by LC-MS/MS analysis; type: ADME, organism-based, Macaca fascicularis; settings: in vivo
[23] = Toxicity in human Huh-7 cells assessed as fold change in lipid droplet count at 10 uM incubated for 48 hrs by plate reader assay; type: cell-based; settings: huh-7, 48 h
[24] = Toxicity in rat Hepatoma cell line assessed as fold change in lipid droplet count at 10 uM incubated for 48 hrs by plate reader assay; type: cell-based
[25] = Toxicity in human Huh-7 cells assessed as fold change in lipid droplet count at 20 uM incubated for 48 hrs by plate reader assay; type: cell-based; settings: hepatoma cell line
Huh-7 = assay: Cytotoxicity against human Huh-7 cells at 40 to 80 uM; type: toxicity, cell-based; settings: huh-7, 80 µM, dose 40-80 µM
Hepatoma cell line = assay: Cytotoxicity against rat Hepatoma cell line at 40 to 80 uM; type: toxicity, cell-based; settings: dose 40-80 µM
[26] = Cmax in rat at 50 mg/kg,po qd for 1 week; type: ADME, organism-based; parameters: time 1 weeks, dose 50 mg/kg, route po; settings: in vivo
[27] = AUC in rat at 50 mg/kg,po qd for 1 week; type: ADME, organism-based; parameters: dose 50 mg/kg, time 1 weeks, route po; settings: in vivo, 168 h
[28] = Toxicity in rat assessed as hepatocellular vacuolation at 200 mg/kg,po for 1 week; type: organism-based; settings: in vivo, 168 h, time 1 weeks

## Cc1nc(C)c([C@H](OC(C)(C)C)C(=O)O)c(N2CCC(C)(C)CC2)c1-c1ccc2c(c1)CCN(Cc1ccc(F)cc1F)C2
[1]
  EC50: 2.5 nM
[2]
  EC50: 5.4 nM
[3]
  CC50: ≥ 24000 nM
[4]
  clearance: 20.1 mL/min/kg
[5]
  AUC(0-inf): 7.3 µM·h
[6]
  bioavailability: > 100%

## Cc1nc(C)c([C@H](OC(C)(C)C)C(=O)O)c(N2CCC(C)(C)CC2)c1C1=CCN(CCCc2ccc(F)cc2)CC1
[1]
  EC50: 7.6 nM
[3]
  CC50: ≥ 22000 nM
[7]
  fold change (FC): 4.8
[8]
  half-life at 0.5 µM: 35.5 min

## Cc1cccc(Cl)c1CN1CCc2cc(-c3c(C)nc(C)c([C@H](OC(C)(C)C)C(=O)O)c3N3CCC(C)(C)CC3)ccc2C1
[9]
  clearance: 3.9 mL/min/kg
[1]
  EC50: 3.5 nM
[2]
  EC50: 7.5 nM
[3]
  CC50: 22500 nM
[10]
  clearance: 3.3 mL/min/kg
[4]
  clearance: 3.5 mL/min/kg
[5]
  AUC(0-inf): 14.9 µM·h
[6]
  bioavailability: 35%
[11]
  EC50: 5.8 nM
[12]
  EC50: 5.4 nM
[13]
  EC50: 5.8 nM
[14]
  EC50: 6.5 nM
[15]
  EC50: 3.2 nM
[16]
  AUC(0-inf): 30.3 µM·h
[17]
  bioavailability: 72%
[18]
  clearance: 0.5 mL/min/kg
[19]
  AUC(0-inf): 104 µM·h
[20]
  bioavailability: 90%
[21]
  AUC(0-inf): 5.4 µM·h
[22]
  bioavailability: 58%
[23]
  fold change (FC): 4.1
[24]
  fold change (FC): 3.7
[25]
  fold change (FC): 9.1
Huh-7
  Activity: Toxic
Hepatoma cell line
  Activity: Toxic
[26]
  Cmax: 32 µM
[27]
  AUC: 335 µM·h
[28]
  Activity: Toxic

## Cc1nc(C)c([C@H](OC(C)(C)C)C(=O)O)c(N2CCC(C)(C)CC2)c1-c1ccc2c(c1)CC[C@H](Cc1ccc(F)cc1)O2
[1]
  EC50: 2.5 nM
[2]
  EC50: 12.8 nM
[3]
  CC50: ≥ 22000 nM
[7]
  fold change (FC): 5

## Cc1nc(C)c([C@H](OC(C)(C)C)C(=O)O)c(N2CCC(C)(C)CC2)c1-c1ccc(OCCc2ccc(F)cc2)nc1
[1]
  EC50: 12.3 nM
[3]
  CC50: ≥ 22000 nM
[7]
  fold change (FC): 7.2
[8]
  half-life at 0.5 µM: > 120 min

## Cc1nc(C)c([C@H](OC(C)(C)C)C(=O)O)c(N2CCC(C)(C)CC2)c1-c1ccc2c(c1)CCN(Cc1cccc(F)c1F)C2
[1]
  EC50: 4.2 nM
[2]
  EC50: 13.6 nM
[3]
  CC50: ≥ 24000 nM
[4]
  clearance: 8.1 mL/min/kg
[5]
  AUC(0-inf): 8.4 µM·h
[6]
  bioavailability: 50%

## Cc1nc(C)c([C@H](OC(C)(C)C)C(=O)O)c(N2CCC(C)(C)CC2)c1-c1cnc(OCCc2ccc(F)cc2)nc1
[1]
  EC50: 9 nM
[3]
  CC50: ≥ 22000 nM
[7]
  fold change (FC): 4.8
[8]
  half-life at 0.5 µM: 22 min

## Cc1nc(C)c([C@H](OC(C)(C)C)C(=O)O)c(N2CCC(C)(C)CC2)c1-c1ccc2c(c1)CC[C@@H](Cc1ccc(F)cc1)O2
[1]
  EC50: 1.5 nM
[2]
  EC50: 7.3 nM
[3]
  CC50: ≥ 22000 nM
[7]
  fold change (FC): 5

## Cc1nc(C)c([C@H](OC(C)(C)C)C(=O)O)c(N2CCC(C)(C)CC2)c1-c1ccc2c(c1)CCN(Cc1ccc(F)cc1)C2
[1]
  EC50: 5.9 nM
[3]
  CC50: ≥ 22000 nM
[7]
  fold change (FC): 3.7
[8]
  half-life at 0.5 µM: 55 min

## Cc1ncc(-c2ccc(OCCc3ccc(F)cc3)cc2)c(N2CCC(C)(C)CC2)c1[C@H](OC(C)(C)C)C(=O)O
[23]
  fold change (FC): 2.9
[24]
  fold change (FC): 2.5

## Cc1nc(C)c([C@H](OC(C)(C)C)C(=O)O)c(N2CCC(C)(C)CC2)c1-c1ccc2c(c1)CCN(c1ncnc3c1oc1ccccc13)C2
[1]
  EC50: 1.5 nM
[2]
  EC50: 3.4 nM
[3]
  CC50: ≥ 17000 nM
[4]
  clearance: 0.5 mL/min/kg
[5]
  AUC(0-inf): 226 µM·h
[6]
  bioavailability: 72%

## Cc1nc(C)c([C@H](OC(C)(C)C)C(=O)O)c(N2CCC(C)(C)CC2)c1-c1cnn(CCCc2ccc(F)cc2)c1
[1]
  EC50: 8.8 nM
[3]
  CC50: ≥ 22000 nM
[7]
  fold change (FC): 4.8
[8]
  half-life at 0.5 µM: 34 min

## Cc1nc(C)c([C@H](OC(C)(C)C)C(=O)O)c(N2CCC(C)(C)CC2)c1-c1ccc2c(c1)CCN(c1ncnc3c1cnn3C)C2
[1]
  EC50: 2.9 nM
[2]
  EC50: 7 nM
[3]
  CC50: ≥ 17000 nM
[4]
  clearance: 3.6 mL/min/kg
[5]
  AUC(0-inf): 36.2 µM·h
[6]
  bioavailability: 95%

## Cc1nc(C)c([C@H](OC(C)(C)C)C(=O)O)c(N2CCC(C)(C)CC2)c1-c1ccc2c(c1)CCN(Cc1cccc(F)c1C)C2
[1]
  EC50: 2.6 nM
[2]
  EC50: 8.1 nM
[3]
  CC50: ≥ 24000 nM
[4]
  clearance: 4 mL/min/kg
[5]
  AUC(0-inf): 23.2 µM·h
[6]
  bioavailability: 64%

## Cc1nc(C)c([C@H](OC(C)(C)C)C(=O)O)c(N2CCC(C)(C)CC2)c1-c1ccc2c(c1)CCN(c1nccc(-c3cnccn3)n1)C2
[1]
  EC50: 2.2 nM
[2]
  EC50: 7.9 nM
[3]
  CC50: ≥ 17000 nM
[4]
  clearance: 2.1 mL/min/kg
[5]
  AUC(0-inf): 23.7 µM·h
[6]
  bioavailability: 38%

## Cc1cccc(F)c1CN1CCc2cc(-c3c(C)nc(C)c([C@H](OC(C)(C)C)C(=O)O)c3N3CCC(C)(C)CC3)ccc2C1
[1]
  EC50: 5.6 nM
[2]
  EC50: 5.3 nM
[3]
  CC50: ≥ 24000 nM
[4]
  clearance: 5.8 mL/min/kg
[5]
  AUC(0-inf): 16 µM·h
[6]
  bioavailability: 70%

## Cc1nc(C)c([C@H](OC(C)(C)C)C(=O)O)c(N2CCC(C)(C)CC2)c1-c1ccc(OCCc2ccc(F)cc2)cc1
[1]
  EC50: 1.7 nM
[2]
  EC50: 3.8 nM
[3]
  CC50: ≥ 22000 nM
[8]
  half-life at 0.5 µM: > 120 min
[23]
  fold change (FC): 3.7
[24]
  fold change (FC): 4

## Cc1nc(C)c([C@H](OC(C)(C)C)C(=O)O)c(N2CCC(C)(C)CC2)c1-c1ccc2c(c1)CCN(c1nc3cnccc3s1)C2
[1]
  EC50: 1.5 nM
[2]
  EC50: 2.6 nM
[3]
  CC50: ≥ 17000 nM
[4]
  clearance: 14.8 mL/min/kg
[5]
  AUC(0-inf): 10.8 µM·h
[6]
  bioavailability: > 100%
